According to PMC10044725, “Antioxidant, Anti-Inflammatory and Anti-Diabetic Activities of Tectona grandis Methanolic Extracts, Fractions, and Isolated Compounds” (Antioxidants, 2023):
Marks after values point to notes of the source that are not given here.

How the values were obtained:
[1] = DPPH free radical scavenging assay; details: isolated compounds; half scavenging concentration; read-out: DPPH Assay SC50
Protocol: The DPPH free radical scavenging activities of T. grandis methanolic extract, different fractions and its compounds were conducted according to Dr. Yang et al.. […] The absorbance was measured using a microplate reader at 517 nm, and ascorbic acid was used as a positive control. The DPPH scavenging activity was calculated according to the following formula: Scavenging activity (%) = [1 − (A1 − A2)/(A3 − A4)] × 100% (1) where A1 is the OD value of the tested samples, A2 is the OD value of the sample control, A3 is the OD value of the negative control and A4 is the OD value of the blank control. The analysis was performed in triplicates and the results were described as SC50 values.

[2] = ABTS radical cation scavenging assay (Trolox equivalent); details: compounds at 50 μM
Protocol: The ABTS radical cation (ABTS•+) scavenging activities were conducted in accordance with the instructions for the ABTS kit. The total antioxidant activity values were estimated using the Trolox equivalent antioxidant capacity test. The detection concentration of methanolic extract and different fractions was 80 μg/mL, and the detection concentration of compounds (1–23) was 50 μM. […] Then, 190 μL of ABTS working reagent was mixed with 10 μL sample and incubated at room temperature for 5 min. The absorbance was then measured using a microplate reader at 734 nm, and the scavenging activity was calculated according to Equation (2). The blank control group used DMSO to replace the sample. […] The analysis was performed in triplicates, 1.424, 0.0012 was a constant.

pBR322 DNA = test: Prevention of AAPH-induced DNA oxidative damage; details: AAPH 20 mM; p < 0.0001 vs model
Protocol: The effects of T. grandis methanolic extract, different fractions and its compounds 15, 19 and 23 on the prevention of DNA oxidative damage were carried out using the method of Han et al.. Initially, 8 μL pBR322 DNA (50 μg/mL) in PBS (0.1 M, pH 6.8) was mixed with different concentrations of T. grandis fractions and its compounds (12 μL) and incubated in water at 37 °C for 30 min. Then, 5 μL AAPH (20 mM) was added to the mixture and the reaction continued for 60 min. The control group used the same volume of PBS (0.1 M, pH 6.8) to replace AAPH. The pre-treated samples were mixed with 5 × DNA loading buffer, and the mixture (8 μL) was taken for 1.0% agarose gel electrophoresis for 25 min. After electrophoresis, the gels were stained with ethidium bromide for 20 min. Finally, images were taken using a DNA gel imaging system (ChampChemi 610, Beijing sage creation Co., Ltd. Beijing, China).

BSA = test: Prevention of AAPH-induced protein oxidative damage; parameters: species or system Bovine; details: AAPH 160 mM; residual BSA
Protocol: The protective activities of T. grandis methanolic extract, different fractions and its compounds 15 and 23 on protein oxidative damage were carried out using the method of Yang et al.. Initially, 20 μL BSA solutions (1 mg/mL) in PBS (0.1 M, pH 6.8) were mixed with different concentrations of fractions (40 μL) and compounds (40 μL) and incubated in water at 37 °C for 30 min. Then, 40 μL AAPH (160 mM) was added to the mixture and the reaction continued for 4 h. The control group used the same volume of PBS (0.1 M, pH 6.8) to replace AAPH. The pre-treated samples were added to 5 × SDS loading buffer and treated in water at 95 °C for 15 min. […] After electrophoresis, the gels were stained with Coomassie brilliant blue R-250 dye (0.25%, w/v), and then the gels were decolorized with the decolorizing solution. Finally, images were taken using the SDS-PAGE gel imaging system (ChampChemi 610, China) and the grayscale of Western blot was analyzed using Image J software.

TNF-α = TNF-α secretion in LPS-stimulated RAW 264.7 macrophages (ELISA); type: cell-based, mouse; details: 40 µM, LPS 1 µg/mL, 48 h, vs model control (p < 0.01)
Protocol: (§1) In order to increase cytokine production, macrophages were treated with LPS at a final concentration of 1 µg/mL, and then with T. grandis compounds at 40 µM. The compounds were solubilized in DMEM medium containing 0.1% DMSO. Dexamethasone was employed as a positive control (5 µg/mL). A centrifuge was used to separate the supernatant from the cells after 48 h of incubation, with three replicates per group. Quantification of TNF-α, IL-1β and IL-6 secretion was achieved by following the ELISA manufacturer's instructions. Then, absorbance was measured at 450 nm. Relative TNF-α, IL-1β and IL-6 expression was calculated according to Equation (4). Following the inflammatory factor test, cell viability was detected by CellTiter96® Aqueous One Solution Cell Proliferation Assay. Then, 20 μL/well CellTiter96® Aqueous One Solution Cell Growth Assay reagent was added to the plate and incubated at 37 °C for 8 h, absorbance was measured at […] and relative cell viability was calculated according to Equation (5). Relative content of inflammatory cytokines (%) = (A1/A2)/A3 × 100%(4) where A1 is the concentrations value of inflammatory cytokines of each group, A2 is the relative cell viability of each group (model group is 100) and A3 is the concentration of inflammatory cytokines of model group. Cell viability rate (%) = B1/B2 × 100%(5) where B1 is the OD value of each fraction group or positive control group and B2 is the OD value of the model control.

IL-1β = IL-1β secretion in LPS-stimulated RAW 264.7 macrophages (ELISA); type: cell-based, mouse; details: 40 µM, LPS 1 µg/mL, 48 h, vs model control (p < 0.0001)
Protocol: as §1

α-glucosidase = test: α-Glucosidase inhibition assay (pNPG); type: biochemical
Protocol: The inhibitory effect on α-glucosidase was measured according to the previous report method with slight modifications. The 20 mM sample dissolved in DMSO was diluted to 50 μM in PBS, 10 μL sample was mixed with 50 μL of 0.1 μ/mL α-glucosidase solution in 0.1 M phosphate buffer (pH 6.5) in a 96-well microplate and 10 μL PBS was used as a blank control. The mixture was incubated at 37 °C for 10 min before adding 40 µL of 5 mM 4-nitrophenyl-α-D-glucopyranoside to each well. After 30 min of incubation at 37 °C, the reaction was terminated by adding 50 μL of 0.1 M Na2CO3 to this mixture. The released 4-nitrophenol absorbance measurements were carried out using a microplate reader (SpectraMax190, USA) at 405 nm.

## O=C(O)c1cc(O)c(O)c(O)c1 [Compound 23, gallic acid]
[1]
  EC50: 320 ± 70 nM
[2]
  ABTS Assay: 0.95 ± 0.02 ^a mmol Trolox/L
pBR322 DNA
  concentration at which a protective effect against DNA oxidative damage begins: 0.6 mM
BSA
  concentration at which a protective effect against protein oxidative damage begins: 320 µM
TNF-α
  effect on TNF-α inflammatory factor level: could decrease
IL-1β
  effect on IL-1β inflammatory factor level: significant decrease
α-glucosidase; at a concentration of 50 µM
  Inhibitory Rate (%): 21.89 ± 3.03 ^c %
α-glucosidase; compounds
  IC50: > 50000 nM
